Consider five compounds from ChEMBL document CHEMBL1201862, “PubChem BioAssay data set” (2004).

Structures are written as SMILES. Activity calls are given as the source filed them.

For one test, the system named is Escherichia coli. In words: microbe, parasite or virus in culture.
Test [1] can be described thus: fluconazole-exposed Candida albicans growth modulators – fluorescence, retest, confirmation (AID 2467). Type of test: functional, cell-based.
The nature of test [2]: HPDE-C7 pancreatic duct cell viability loss – fluorescence, HTS (AID 430). Format: functional, cell-based. The settings on record: Homo sapiens.
The nature of test [3]: THP-1 cell cytotoxicity, dose response, cytotoxicity control for non-replicating M. tuberculosis project (AID 489025). Format: functional.
The subject of test [4] is A-375. The test can be described thus: MITF: Counter assay: A375 proliferation Measured in Cell-Based System Using Plate Reader - 2084-03_Inhibitor_Dose_DryPowder_Activity. [Related pubchem assays (depositor defined):AID488944]. Type of test: functional. The note with it: Homo sapiens.
A short description of test [5]: viability loss of HPDE-C7K cells – cell-based, fluorescence, HTS, primary screen (AID 431). Type of test: functional. The note with it: Homo sapiens.
Test [6] is described as follows: HepG2 cell cytotoxicity, dose response, cytotoxicity control for non-replicating M. tuberculosis project (AID 489018). Format: functional. The note with it: Mycobacterium tuberculosis.
Test [7] is described as follows: viability of PTEN-deleted HCT116 cells – cell-based, HCT116 PTEN knockout, dose response (AID 1047).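 Also: HCT116 colon tumor cells with PTEN knocked out; cells exposed to compound for 60 hours before readout; potency for loss of cell viability measured by luminescence.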 Format: functional.
The nature of the next test: cells. Format: functional.
A short description of test [8]: reduced cellular PGC1a acetyl-lysine signal – cell-based, cherry-picked samples, dose response (AID 720514).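 Also: potency may reflect raised or lowered acetylation signal.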 Type of test: functional.
Test [9] concerns the target T1, Microphthalmia-associated transcription factor (Homo sapiens, UniProt O75030).
T1 sequence (O75030 whole entry): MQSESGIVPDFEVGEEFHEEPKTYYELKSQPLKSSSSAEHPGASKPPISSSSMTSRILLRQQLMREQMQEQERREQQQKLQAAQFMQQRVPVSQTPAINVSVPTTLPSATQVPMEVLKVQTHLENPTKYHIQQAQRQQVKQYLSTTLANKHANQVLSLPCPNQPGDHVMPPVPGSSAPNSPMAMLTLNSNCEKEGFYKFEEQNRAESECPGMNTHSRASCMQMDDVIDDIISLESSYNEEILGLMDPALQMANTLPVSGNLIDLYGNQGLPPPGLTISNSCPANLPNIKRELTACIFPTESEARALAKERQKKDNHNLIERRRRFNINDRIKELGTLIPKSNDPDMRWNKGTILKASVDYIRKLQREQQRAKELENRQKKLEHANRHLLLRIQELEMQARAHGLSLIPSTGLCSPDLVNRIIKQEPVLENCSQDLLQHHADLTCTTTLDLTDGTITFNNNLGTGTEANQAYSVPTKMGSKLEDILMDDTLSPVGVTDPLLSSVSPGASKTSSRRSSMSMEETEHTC
The test can be described thus: reducers of TRPM1 reporter luminescence, concentration series – cell-based, SK-MEL-5, cherry-picked, set 3, MITF inhibitor project, dose response (AID 493073).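 Also: SK-MEL-5 melanoma cells with luciferase driven by the MITF target TRPM1 promoter.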 Type of test: functional.

Test [10] has as its system A-375. In words: proliferation inhibition in MITF-low A375 cells – cell-based, cherry-pick samples, set 2, counter-screen for MITF modulator project, dose response (AID 540335). The note with it: Homo sapiens. Type of test: functional. A general note: Counterscreens check selectivity or assay interference.
Test [11] in a line: Vero E6 cell cytotoxicity, dose response, cytotoxicity control for non-replicating M. tuberculosis project, secondary assay (AID 492998). Type of test: functional, VeroE6. The settings on record: Vero C1008.
A short description of test [12]: viability of HCT116 lacking mutant beta-catenin – cell-based, human colon tumor, dose response (AID 1045).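 Also: HCT116 colon tumor cells with beta catenin knocked out; cells exposed to compound for 60 hours.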 Type of test: functional.
Test [13] is described as follows: NIH-3T3 fibroblast cytotoxicity, dose response, cytotoxicity control, cell-based, fluorescence, Alamar Blue, secondary assay (AID 2327).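 Also: NIH-3T3 mouse fibroblasts cultured with fluconazole at 8 µg/mL.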 Format: functional. (In general: Alamar Blue is a resazurin reagent that responds to reducing activity.)
The target of test [14] is T2, Carboxy-terminal domain RNA polymerase II polypeptide A small phosphatase 1 (Homo sapiens, UniProt Q9GZU7).
T2 sequence (Q9GZU7 whole entry): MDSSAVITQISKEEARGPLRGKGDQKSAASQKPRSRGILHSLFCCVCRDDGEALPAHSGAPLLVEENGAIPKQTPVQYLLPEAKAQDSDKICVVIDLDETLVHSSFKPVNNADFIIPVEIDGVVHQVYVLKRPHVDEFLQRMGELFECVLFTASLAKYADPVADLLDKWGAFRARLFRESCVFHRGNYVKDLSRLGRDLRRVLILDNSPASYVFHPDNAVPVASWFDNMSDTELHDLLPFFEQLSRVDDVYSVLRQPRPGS
In words: CTDSP1 inhibitors, concentration-response, biochemical, absorbance readout, ultra-high-throughput screen actives (AID 540297). Type of test: functional.

Test [15] has as its target G-protein coupled receptor 35 (Homo sapiens, UniProt Q9HC97). In words: inhibition of zaprinast-stimulated GPR35 beta-arrestin translocation – imaging, U2OS, beta-arrestin-GFP, zaprinast agonist, primary screen (AID 2058).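 Also: antagonist potency meaning inhibition of agonist-induced arrestin redistribution.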 Type of test: functional.
The target of test [16] is T3, Small ubiquitin-related modifier 1 (Homo sapiens, UniProt P63165). In words: SUMO1 protein interaction blockers, potency – biochemical, fluorescence polarization, uHTS hits, dose response (AID 624382). Type of test: functional. The settings on record: read-out: IC50_Mean.
T3 sequence (P63165 whole entry): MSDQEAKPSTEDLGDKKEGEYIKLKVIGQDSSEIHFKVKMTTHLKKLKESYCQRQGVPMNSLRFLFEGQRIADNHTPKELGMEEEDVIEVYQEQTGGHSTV
The target in test [17] is T3, Small ubiquitin-related modifier 1. In words: SUMO1 protein-protein binding blockers, potency – biochemical, FRET, dose response (AID 624383). Format: functional. The settings on record: read-out: IC50_Mean.
Test [18] deals with T4, Voltage-gated N-type calcium channel alpha-1B subunit/Amyloid beta A4 precursor protein-binding family A member 1 (Homo sapiens, UniProt Q00975+Q02410). Format: protein assay.
T4 sequence (Q00975 whole entry): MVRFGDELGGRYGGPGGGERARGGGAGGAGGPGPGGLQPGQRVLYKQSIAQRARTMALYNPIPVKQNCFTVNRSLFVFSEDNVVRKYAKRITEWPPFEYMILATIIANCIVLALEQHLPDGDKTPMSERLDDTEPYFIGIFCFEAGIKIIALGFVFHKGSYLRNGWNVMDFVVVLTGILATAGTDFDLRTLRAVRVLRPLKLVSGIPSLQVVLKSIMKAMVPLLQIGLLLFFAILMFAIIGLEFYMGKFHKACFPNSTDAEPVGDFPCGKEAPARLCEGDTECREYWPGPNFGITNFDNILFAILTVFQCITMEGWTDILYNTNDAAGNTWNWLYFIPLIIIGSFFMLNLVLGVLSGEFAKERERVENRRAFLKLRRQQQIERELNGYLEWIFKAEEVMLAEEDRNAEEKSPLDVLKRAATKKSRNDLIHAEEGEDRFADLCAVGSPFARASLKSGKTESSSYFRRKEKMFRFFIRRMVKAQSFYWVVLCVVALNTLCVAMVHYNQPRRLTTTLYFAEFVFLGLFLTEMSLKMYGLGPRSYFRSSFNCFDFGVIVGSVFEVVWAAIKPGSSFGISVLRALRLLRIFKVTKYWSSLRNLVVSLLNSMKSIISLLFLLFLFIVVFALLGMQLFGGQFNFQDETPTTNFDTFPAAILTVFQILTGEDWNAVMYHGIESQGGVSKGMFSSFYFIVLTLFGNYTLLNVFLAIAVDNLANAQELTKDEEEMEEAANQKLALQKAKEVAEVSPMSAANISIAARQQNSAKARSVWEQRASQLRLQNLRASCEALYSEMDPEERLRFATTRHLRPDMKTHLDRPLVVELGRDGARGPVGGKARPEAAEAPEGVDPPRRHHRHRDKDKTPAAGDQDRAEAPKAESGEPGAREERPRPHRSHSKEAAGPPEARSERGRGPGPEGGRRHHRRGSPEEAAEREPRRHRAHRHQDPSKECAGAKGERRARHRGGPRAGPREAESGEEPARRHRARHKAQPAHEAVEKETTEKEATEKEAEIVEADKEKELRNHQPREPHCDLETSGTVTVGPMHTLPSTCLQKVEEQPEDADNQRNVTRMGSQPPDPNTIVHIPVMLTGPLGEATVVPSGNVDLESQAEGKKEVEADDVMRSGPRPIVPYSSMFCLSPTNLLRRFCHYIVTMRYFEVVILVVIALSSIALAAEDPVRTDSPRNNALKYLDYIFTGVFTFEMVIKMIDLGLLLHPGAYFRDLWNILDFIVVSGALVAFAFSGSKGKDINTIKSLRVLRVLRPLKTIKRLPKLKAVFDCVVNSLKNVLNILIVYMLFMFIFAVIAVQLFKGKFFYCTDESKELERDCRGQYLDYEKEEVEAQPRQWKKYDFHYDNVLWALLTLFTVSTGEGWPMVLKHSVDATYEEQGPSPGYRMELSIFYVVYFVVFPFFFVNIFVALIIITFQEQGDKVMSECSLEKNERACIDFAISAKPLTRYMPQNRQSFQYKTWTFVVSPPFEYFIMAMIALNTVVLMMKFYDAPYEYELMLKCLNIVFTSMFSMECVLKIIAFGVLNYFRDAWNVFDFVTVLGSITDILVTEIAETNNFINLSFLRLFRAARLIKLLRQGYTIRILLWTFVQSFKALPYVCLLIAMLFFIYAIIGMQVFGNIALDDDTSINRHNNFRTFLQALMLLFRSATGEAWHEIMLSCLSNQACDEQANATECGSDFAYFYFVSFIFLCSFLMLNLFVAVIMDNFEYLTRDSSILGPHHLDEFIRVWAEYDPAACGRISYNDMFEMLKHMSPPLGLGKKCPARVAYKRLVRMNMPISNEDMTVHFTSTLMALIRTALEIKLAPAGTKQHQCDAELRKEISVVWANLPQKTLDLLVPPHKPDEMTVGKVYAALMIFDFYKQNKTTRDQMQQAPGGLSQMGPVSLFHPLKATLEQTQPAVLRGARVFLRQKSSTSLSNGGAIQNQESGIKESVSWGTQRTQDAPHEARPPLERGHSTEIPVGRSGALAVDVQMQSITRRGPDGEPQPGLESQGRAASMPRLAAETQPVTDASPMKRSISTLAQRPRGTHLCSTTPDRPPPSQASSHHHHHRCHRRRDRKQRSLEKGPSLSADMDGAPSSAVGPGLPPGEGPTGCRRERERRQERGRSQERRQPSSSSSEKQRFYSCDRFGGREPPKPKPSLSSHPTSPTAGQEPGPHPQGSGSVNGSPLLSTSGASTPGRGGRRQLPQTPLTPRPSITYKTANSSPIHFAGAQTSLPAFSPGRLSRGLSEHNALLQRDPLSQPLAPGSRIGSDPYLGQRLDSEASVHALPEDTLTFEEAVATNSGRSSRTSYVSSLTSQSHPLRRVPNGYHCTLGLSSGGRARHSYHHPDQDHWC
T4 sequence (Q02410 whole entry): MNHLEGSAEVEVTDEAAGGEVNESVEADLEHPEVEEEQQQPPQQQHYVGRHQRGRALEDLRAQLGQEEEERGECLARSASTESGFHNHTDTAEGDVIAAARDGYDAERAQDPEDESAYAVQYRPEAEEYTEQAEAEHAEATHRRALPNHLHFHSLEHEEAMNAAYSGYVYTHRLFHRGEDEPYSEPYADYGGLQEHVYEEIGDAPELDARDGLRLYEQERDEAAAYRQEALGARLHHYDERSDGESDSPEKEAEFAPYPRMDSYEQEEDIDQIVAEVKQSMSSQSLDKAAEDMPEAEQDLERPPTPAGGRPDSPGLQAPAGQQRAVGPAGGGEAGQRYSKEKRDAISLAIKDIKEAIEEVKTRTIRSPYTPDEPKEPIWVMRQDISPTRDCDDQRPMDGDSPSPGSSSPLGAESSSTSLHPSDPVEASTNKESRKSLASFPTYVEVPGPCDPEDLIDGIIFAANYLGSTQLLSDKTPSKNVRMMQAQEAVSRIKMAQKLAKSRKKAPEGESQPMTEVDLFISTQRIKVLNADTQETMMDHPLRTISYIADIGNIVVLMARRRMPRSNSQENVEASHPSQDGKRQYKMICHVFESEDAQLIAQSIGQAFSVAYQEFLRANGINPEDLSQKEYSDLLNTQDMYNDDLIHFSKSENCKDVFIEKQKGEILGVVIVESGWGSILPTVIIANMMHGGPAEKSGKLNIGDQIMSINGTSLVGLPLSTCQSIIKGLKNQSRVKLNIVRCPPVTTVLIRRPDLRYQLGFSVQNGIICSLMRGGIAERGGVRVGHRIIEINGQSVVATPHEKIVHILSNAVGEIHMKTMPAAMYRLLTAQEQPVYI
In test [19] the target is T5, Beta-adrenergic receptor kinase 1 (Homo sapiens, UniProt P25098).
T5 sequence (P25098 whole entry): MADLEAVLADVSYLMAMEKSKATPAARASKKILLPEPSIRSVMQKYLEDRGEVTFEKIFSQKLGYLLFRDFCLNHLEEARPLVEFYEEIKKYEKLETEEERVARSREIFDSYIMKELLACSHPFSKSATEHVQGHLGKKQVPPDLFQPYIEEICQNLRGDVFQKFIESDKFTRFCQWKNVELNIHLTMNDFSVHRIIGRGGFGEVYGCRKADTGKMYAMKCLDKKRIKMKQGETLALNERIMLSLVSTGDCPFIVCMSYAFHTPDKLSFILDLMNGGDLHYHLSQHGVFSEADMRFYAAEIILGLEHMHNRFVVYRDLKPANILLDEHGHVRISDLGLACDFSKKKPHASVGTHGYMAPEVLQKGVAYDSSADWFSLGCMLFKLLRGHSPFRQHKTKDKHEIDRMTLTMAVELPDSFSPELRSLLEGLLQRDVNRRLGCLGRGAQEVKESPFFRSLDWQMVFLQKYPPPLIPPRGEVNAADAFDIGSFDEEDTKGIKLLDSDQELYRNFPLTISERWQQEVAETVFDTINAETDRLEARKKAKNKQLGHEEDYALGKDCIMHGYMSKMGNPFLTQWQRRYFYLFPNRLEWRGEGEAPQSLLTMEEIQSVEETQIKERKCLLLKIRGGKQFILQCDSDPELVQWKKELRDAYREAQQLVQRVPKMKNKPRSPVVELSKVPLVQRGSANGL
The test can be described thus: Second cherry pick EC50 of compounds blocking aptamer binding to bead-bound GRK2 by flow cytometry, biochemical (AID 504815). For orientation: Flow cytometry measures light scatter and fluorescence of single cells or particles in a stream.

Test [20] addresses T5, Beta-adrenergic receptor kinase 1. In words: blockers of aptamer binding to GRK2 – biochemical, flow cytometry beads, FAM-aptamer, powder set 1, dose response (AID 588720).
Test [21] addresses T4, Voltage-gated N-type calcium channel alpha-1B subunit/Amyloid beta A4 precursor protein-binding family A member 1. Type of test: protein assay. This is another data set of the same source.
In test [22] the target is Dual specificity protein kinase CLK1 (Homo sapiens, UniProt P49759). The test can be described thus: inhibition of human CLK1 activity – biochemical, cherry-picked samples, selectivity assay for Dyrk1A inhibitor project, dose response (AID 588811).
Test [23] has as its target Dual specificity tyrosine-phosphorylation-regulated kinase 1A (Rattus norvegicus, UniProt Q63470). Format: biochemical, Homo sapiens.
Test [24] concerns the target Delta-type opioid receptor (Homo sapiens, UniProt P41143). In words: Counterscreen for agonists of heterodimerization of the mu 1 (OPRM1) and delta 1 (OPRD1) opioid receptors: Luminescence-based cell-based high throughput dose response assay to identify agonists of OPRD1 homodimerization. [Related pubchem assays (depositor defined):AID504326, AID504355, AID504692, AID504904, AID504905]. Format: functional.

The next test deals with Mu-type opioid receptor (Homo sapiens, UniProt P35372). In words: Counterscreen for agonists of heterodimerization of the mu 1 (OPRM1) and delta 1 (OPRD1) opioid receptors: Luminescence-based cell-based high throughput dose response assay to identify agonists of OPRM1 homodimerization. Type of test: functional.
Sequence of Mu-type opioid receptor (P35372 whole entry): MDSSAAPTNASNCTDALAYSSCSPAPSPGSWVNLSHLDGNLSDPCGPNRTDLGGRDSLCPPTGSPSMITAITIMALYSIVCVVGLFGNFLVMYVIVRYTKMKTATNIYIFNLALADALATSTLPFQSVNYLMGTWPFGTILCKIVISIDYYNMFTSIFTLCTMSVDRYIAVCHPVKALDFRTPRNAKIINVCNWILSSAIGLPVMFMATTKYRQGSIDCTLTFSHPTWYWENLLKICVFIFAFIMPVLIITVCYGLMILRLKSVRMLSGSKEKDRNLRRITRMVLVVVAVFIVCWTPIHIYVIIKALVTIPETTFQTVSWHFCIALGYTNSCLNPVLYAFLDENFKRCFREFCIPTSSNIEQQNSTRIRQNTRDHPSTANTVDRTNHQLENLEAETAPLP
Test [25] has as its target T6, Short transient receptor potential channel 4 (Mus musculus, UniProt Q9QUQ5).
T6 sequence (Q9QUQ5 whole entry): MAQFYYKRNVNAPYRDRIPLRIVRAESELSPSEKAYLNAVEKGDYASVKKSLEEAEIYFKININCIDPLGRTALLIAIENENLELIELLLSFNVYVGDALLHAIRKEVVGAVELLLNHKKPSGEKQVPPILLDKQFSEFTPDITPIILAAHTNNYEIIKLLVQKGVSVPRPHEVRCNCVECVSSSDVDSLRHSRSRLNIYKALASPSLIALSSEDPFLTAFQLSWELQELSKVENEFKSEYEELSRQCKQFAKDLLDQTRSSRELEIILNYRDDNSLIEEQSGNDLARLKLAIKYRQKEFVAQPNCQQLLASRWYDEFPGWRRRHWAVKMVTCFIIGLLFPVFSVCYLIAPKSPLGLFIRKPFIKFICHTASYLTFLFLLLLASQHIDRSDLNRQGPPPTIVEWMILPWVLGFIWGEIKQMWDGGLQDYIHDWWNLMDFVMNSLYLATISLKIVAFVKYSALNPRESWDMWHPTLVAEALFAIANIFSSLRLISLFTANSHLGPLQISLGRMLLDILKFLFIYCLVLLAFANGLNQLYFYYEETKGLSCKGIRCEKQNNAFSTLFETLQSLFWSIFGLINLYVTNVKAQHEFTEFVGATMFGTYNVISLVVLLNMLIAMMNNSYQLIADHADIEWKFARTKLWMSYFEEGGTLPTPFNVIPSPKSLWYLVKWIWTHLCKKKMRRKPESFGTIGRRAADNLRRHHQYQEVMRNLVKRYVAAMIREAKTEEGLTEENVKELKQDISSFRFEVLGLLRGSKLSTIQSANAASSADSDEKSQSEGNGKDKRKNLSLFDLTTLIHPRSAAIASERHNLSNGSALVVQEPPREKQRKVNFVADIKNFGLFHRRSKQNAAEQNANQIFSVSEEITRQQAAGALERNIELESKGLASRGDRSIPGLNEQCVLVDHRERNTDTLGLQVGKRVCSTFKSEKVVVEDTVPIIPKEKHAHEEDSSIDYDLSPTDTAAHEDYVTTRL
The test can be described thus: calcium entry via TRPC4 opening agents – cell-based, HEK293 TRPC4/mu-opioid, Fluo-4 calcium, dose response (AID 434937). Type of test: functional.

Test [26] has as its target Opioid receptors; mu & delta (Homo sapiens, UniProt P41143+P35372). The test can be described thus: OPRM1-OPRD1 heterodimer agonist potency – cell-based, luminescence, dose response (AID 588407). Type of test: functional.
Test [27] has as its target 5-hydroxytryptamine receptor 5A (Homo sapiens, UniProt P47898). The test can be described thus: Counterscreen for agonists of OPRM1-OPRD1 heterodimerization: luminescence-based cell-based high throughput dose response assay to identify agonists of 5-hydroxytryptamine (serotonin) 5A receptor (HTR5A). [Related pubchem assays (depositor defined):AID504326, AID504355, AID504692, AID504904, AID504905]. Format: functional.

Sequence of Delta-type opioid receptor (P41143 whole entry): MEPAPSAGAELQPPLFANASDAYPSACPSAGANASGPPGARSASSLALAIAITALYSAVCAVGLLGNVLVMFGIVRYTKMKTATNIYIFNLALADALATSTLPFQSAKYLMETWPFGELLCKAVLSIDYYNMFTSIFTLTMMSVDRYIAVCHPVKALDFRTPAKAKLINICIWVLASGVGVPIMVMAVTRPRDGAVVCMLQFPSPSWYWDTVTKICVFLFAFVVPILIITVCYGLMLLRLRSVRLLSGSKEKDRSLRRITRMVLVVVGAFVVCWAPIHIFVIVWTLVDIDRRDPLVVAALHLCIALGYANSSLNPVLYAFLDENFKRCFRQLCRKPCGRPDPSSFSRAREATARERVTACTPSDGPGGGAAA
Sequence of 5-hydroxytryptamine receptor 5A (P47898 whole entry): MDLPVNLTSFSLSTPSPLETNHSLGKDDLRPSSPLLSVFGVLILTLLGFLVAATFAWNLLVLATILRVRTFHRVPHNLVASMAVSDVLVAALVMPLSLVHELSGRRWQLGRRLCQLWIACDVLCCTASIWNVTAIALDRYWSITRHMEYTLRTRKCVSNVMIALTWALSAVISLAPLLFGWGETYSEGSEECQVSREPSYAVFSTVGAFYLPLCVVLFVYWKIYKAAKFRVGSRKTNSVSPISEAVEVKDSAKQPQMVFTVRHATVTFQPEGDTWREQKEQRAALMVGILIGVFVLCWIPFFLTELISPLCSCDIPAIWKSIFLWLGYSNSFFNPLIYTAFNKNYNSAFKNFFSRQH
Sequence of G-protein coupled receptor 35 (Q9HC97 whole entry): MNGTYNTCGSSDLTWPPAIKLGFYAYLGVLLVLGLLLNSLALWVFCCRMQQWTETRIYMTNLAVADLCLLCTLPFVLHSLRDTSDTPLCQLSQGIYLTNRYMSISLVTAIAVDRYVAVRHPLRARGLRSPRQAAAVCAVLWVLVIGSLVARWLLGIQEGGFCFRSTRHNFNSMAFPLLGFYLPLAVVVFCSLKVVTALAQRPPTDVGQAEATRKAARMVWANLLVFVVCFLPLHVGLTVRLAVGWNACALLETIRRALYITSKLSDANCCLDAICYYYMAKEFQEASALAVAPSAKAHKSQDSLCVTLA

As usually defined, the AC50 is the concentration giving half of the maximal activity seen. As for `Cc1ccc(-n2nnnc2SCC(=O)Nc2ccc3c(c2)OCCO3)cc1C`, in the test on Escherichia coli, the AC50 was 30.9 µM (active).

Broadly, the EC50 is the concentration needed to bring the measured effect to its halfway point. The CC50 is the concentration that lowers cell viability or growth by half. As to `COc1ccc(C(=O)C(CN2CCCC2)c2ccccc2)cc1` (stereo not given), the EC50 was 2.13 µM (active) in test [1]; 4.54 µM (active) in test [2]; 6.46 µM (active) in test [5]; 2.44 µM (active) in test [7]; 1.83 µM (active) in test [12]; 59.6 µM (active) in test [13]. For the same compound, the CC50 in test [3] is 7.27 µM (active); in [6] it was 17.3 µM (active); in test [11] it was 11.6 µM (active). For the same compound, the concentration at half-maximal activity (AC50) in the test with A-375 [4] is > 35 µM (active); in test [8] it was 10.5 µM (active); in [9], 9.13 µM (active); with A-375 [10], > 35 µM (active). For the same compound, the IC50 in “cells” was 16.5 µM (active).

On to `NS(=O)(=O)c1ccc(CCNC(=O)CCS(=O)(=O)c2ccc(Br)cc2)cc1`, for which the IC50 in test [14] is 4.17 µM (active); in [15] it was 2.23 µM (active); in test [16], > 66.6 µM (inactive); in test [17], 9.08 µM (active); in test [18], 40.9 µM (active); in test [21], > 50 µM (inactive). For the same compound, the values for the concentration for a half-maximal effect (EC50) in test [19] and in test [20] were 5.2 µM (active) and 1.21 µM (active), respectively.

For the compound `COc1cccc(Nc2ncnc3sc(C)cc23)c1`, the half-maximal activity concentration (AC50) was 5.47 µM (active) in test [22] and 3.81 µM (active) in test [23].

`COc1ccccc1N1CCN(C(c2cccs2)C(C)NC(=O)c2ccco2)CC1` (stereo not given): the EC50 in test [24] is > 92.5 µM (inactive); at Mu-type opioid receptor, 50.3 µM (inactive); in test [25], 0.084 µM (active); in [26] it was over 3.425 µM; in [27], > 92.5 µM (inactive).
